Experimental data: ChEMBL document CHEMBL1136687, “Novel 5-aryl-1,3-dihydro-indole-2-thiones. potent, orally active progesterone receptor agonists” (Bioorg Med Chem Lett, 2003)

Legend:
Progesterone receptor [1] = biological target: T1, Progesterone receptor (Homo sapiens, UniProt P06401); assay: (§1) Effective concentration of progesterone receptor agonist induction of alkaline phosphatase activity in human T47D breast carcinoma cells; format: functional, cell-based
T1 sequence (P06401 whole entry): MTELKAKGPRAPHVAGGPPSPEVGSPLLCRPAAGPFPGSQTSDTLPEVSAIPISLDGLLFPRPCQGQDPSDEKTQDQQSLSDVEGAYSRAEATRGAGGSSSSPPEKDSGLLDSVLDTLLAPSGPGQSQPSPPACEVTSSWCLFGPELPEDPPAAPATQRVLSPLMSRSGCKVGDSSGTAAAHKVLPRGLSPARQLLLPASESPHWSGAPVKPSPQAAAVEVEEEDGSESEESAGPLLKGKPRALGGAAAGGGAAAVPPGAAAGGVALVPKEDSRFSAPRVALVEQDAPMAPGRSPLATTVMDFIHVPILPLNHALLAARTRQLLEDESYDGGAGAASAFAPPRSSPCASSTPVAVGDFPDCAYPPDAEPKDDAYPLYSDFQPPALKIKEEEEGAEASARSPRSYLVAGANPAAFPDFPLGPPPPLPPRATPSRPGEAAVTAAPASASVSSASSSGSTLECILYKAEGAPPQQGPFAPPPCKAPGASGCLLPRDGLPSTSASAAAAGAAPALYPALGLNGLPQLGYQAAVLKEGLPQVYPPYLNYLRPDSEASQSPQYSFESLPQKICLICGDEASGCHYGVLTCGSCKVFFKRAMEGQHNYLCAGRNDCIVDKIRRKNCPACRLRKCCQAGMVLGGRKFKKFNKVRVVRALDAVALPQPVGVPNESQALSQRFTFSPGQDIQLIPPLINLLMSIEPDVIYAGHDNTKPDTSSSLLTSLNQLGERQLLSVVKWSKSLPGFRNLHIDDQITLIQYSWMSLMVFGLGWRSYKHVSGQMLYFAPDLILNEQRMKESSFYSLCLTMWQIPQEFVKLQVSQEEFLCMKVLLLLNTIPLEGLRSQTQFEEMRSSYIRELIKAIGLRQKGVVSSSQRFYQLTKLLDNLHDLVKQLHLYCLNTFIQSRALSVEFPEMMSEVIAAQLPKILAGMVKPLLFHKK

Progesterone receptor [2] = biological target: T2, Progesterone receptor (Rattus norvegicus, UniProt Q63449); assay: Inhibitory progestational activity on oral administration in uterine C3 model; format: functional, organism-based
T2 sequence (Q63449 whole entry): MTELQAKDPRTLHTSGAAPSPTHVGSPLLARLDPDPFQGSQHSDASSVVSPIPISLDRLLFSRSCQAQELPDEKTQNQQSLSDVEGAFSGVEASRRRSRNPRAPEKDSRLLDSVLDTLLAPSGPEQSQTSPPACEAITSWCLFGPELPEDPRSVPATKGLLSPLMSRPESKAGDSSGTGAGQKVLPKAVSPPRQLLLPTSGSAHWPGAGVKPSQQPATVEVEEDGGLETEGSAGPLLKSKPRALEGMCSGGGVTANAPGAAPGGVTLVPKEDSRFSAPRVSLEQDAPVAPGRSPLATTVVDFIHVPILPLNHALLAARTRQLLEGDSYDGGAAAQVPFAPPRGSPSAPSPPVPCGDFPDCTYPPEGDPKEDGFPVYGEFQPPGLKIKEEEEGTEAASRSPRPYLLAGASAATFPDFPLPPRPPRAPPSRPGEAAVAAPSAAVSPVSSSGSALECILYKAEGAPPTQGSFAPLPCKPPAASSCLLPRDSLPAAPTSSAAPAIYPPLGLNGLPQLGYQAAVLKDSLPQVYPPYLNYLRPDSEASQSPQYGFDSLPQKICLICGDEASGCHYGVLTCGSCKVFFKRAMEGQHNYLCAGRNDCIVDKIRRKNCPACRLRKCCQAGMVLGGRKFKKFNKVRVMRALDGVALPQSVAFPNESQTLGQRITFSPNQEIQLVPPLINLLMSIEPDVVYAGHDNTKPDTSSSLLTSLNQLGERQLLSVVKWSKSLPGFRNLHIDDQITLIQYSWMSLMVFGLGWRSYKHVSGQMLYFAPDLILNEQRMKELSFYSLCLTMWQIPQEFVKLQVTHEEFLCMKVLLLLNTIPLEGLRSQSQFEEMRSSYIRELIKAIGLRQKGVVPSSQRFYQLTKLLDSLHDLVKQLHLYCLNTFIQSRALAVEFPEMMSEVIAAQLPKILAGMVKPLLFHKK

[3] = biological target: T3, Progesterone receptor (Rattus norvegicus) (UniProt Q63449); assay: Effective progestational dose on oral administration in rat decidualization model; format: functional, organism-based
T3 sequence (whole entry): T2 sequence (Q63449 whole entry)

Androgen receptor [4] = biological target: T4, Androgen receptor (Mus musculus, UniProt P19091); assay: Inhibitory activity against Androgen receptor in mouse fibroblast L929 cells; format: cell-based
T4 sequence (P19091 whole entry): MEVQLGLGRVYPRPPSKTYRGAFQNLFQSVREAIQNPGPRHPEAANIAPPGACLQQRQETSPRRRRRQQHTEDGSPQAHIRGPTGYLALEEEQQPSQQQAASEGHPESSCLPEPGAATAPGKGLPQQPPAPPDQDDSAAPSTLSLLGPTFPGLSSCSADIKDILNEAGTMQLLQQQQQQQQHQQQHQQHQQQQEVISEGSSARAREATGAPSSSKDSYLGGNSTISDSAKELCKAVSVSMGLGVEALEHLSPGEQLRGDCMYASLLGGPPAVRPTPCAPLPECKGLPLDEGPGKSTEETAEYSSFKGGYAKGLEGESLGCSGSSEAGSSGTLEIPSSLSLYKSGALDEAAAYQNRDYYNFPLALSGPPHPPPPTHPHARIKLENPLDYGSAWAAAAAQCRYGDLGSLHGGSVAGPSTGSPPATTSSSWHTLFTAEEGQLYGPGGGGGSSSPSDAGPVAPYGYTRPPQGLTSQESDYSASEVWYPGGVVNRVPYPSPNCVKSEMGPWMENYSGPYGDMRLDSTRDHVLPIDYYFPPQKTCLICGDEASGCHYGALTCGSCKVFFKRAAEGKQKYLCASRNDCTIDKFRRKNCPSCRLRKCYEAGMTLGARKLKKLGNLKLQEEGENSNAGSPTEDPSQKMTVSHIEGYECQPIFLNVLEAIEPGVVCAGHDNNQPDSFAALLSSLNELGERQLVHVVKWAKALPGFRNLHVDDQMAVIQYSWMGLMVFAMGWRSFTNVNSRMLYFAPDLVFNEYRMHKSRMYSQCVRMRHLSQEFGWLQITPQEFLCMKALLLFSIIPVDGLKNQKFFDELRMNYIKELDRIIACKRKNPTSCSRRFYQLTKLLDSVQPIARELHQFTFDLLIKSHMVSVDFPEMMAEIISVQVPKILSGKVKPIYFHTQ

Progesterone receptor [5] = biological target: T1, Progesterone receptor; assay: Inhibition of 3 nM [3H]R5020 binding to progesterone receptor in human T47D cells; format: functional, cell-based
Glucocorticoid receptor [6] = biological target: T5, Glucocorticoid receptor (Homo sapiens, UniProt P04150); assay: Effective concentration against glucocorticoid receptor in human lung A549 cells
T5 sequence (P04150 whole entry): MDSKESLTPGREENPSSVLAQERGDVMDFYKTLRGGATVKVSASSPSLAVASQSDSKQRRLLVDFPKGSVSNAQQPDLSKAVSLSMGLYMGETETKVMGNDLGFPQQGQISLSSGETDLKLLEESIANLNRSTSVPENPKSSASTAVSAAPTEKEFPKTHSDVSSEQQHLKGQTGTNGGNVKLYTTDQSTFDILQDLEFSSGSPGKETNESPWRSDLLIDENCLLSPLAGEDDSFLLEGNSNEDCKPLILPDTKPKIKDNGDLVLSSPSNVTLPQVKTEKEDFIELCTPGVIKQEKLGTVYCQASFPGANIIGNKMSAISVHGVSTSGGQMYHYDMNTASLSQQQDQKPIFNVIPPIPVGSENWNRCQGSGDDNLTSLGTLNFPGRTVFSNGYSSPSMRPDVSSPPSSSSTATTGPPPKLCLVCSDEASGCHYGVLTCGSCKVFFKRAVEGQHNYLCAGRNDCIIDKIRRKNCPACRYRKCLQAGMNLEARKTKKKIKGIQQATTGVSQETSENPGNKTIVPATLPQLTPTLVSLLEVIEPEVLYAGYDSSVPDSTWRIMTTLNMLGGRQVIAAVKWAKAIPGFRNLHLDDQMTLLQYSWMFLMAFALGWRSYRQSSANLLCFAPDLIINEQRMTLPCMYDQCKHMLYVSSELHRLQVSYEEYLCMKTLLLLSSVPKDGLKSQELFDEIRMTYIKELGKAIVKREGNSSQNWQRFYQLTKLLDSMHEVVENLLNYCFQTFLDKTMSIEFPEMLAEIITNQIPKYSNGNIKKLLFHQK

Glucocorticoid receptor [7] = biological target: T5, Glucocorticoid receptor; assay: Inhibitory activity against glucocorticoid receptor in human lung A549 cells
Androgen receptor [8] = biological target: T4, Androgen receptor; assay: Effective concentration against Androgen receptor in mouse fibroblast L929 cells
Progesterone receptor [9] = biological target: T1, Progesterone receptor; assay: as §1; format: functional, cell-based; remark: listed apart in the source

SMILES	EC50 (Progesterone receptor [1]) [nM]	further results
N#Cc1ccc(F)c(-c2ccc3c(c2)C2(CCCCC2)C(=S)N3)c1	1.4	–
CCC1(CC)C(=S)Nc2ccc(-c3cccc(Cl)c3)cc21	200	–
Fc1ccc(-c2ccc3c(c2)C2(CCCCC2)C(S)=N3)cc1Cl	4.3	–
SC1=Nc2ccc(-c3cccc(-c4ccccc4)c3)cc2C12CCCCC2	71.4	–
CC(=O)O[C@]1(C(C)=O)CC[C@H]2[C@@H]3C[C@H](C)C4=CC(=O)CC[C@]4(C)[C@H]3CC[C@@]21C [MEDROXYPROGESTERONE ACETATE]	–	IC50 (Progesterone receptor [2]): 0.026 mg/kg
CC1(C)C(=S)Nc2ccc(-c3cccc(Cl)c3)cc21	5	–
Cc1c(S)[nH]c2ccc(-c3cccc(Cl)c3)cc12	> 3000	–
COc1cc(F)cc(-c2ccc3c(c2)C2(CCCCC2)C(=S)N3)c1	2.6	–
S=C1Nc2ccc(-c3ccc(Cl)cc3)cc2C12CCCCC2	2000	–
Cc1cc(C#N)sc1-c1ccc2c(c1)C1(CCCCC1)C(=S)N2	0.5	–
CCCCc1cc(C#N)sc1-c1ccc2c(c1)C1(CCCCC1)C(S)=N2	23.5	–
N#Cc1ccc(-c2ccc3c(c2)C2(CCCCC2)C(=S)N3)s1	1	–
Oc1cccc(-c2ccc3c(c2)C2(CCCCC2)C(S)=N3)c1	2.5	–
N#Cc1ccc(-c2ccc3c(c2)C2(CCCCC2)C(S)=N3)cc1F	14.8	–
N#Cc1ccc(-c2ccc3c(c2)C2(CCCCC2)C(S)=N3)s1	–	ED50 [3]: 0.1 mg/kg; IC50 (Progesterone receptor [2]): 0.03 mg/kg
CC1(Cc2ccccc2)C(=S)Nc2ccc(-c3cccc(Cl)c3)cc21 (stereo not drawn)	1200	–
N#Cc1cccc(-c2ccc3c(c2)C2(CCCCC2)C(=S)N3)c1	2	ED50 [3]: 0.4 mg/kg; IC50 (Progesterone receptor [2]): 0.3 mg/kg
S=C1Nc2ccc(-c3ccccc3Cl)cc2C12CCCCC2	5.3	–

SMILES	EC50 (Progesterone receptor [1]) [nM]	further results
Fc1cc(F)cc(-c2ccc3c(c2)C2(CCCCC2)C(=S)N3)c1	0.8	–
S=C1Nc2ccc(-c3cccc(Cl)c3)cc2C12CCCCC2	1.6	–
N#Cc1ccc(-c2ccc3c(c2)C2(CCCCC2)C(S)=N3)o1	1.9	ED50 [3]: 1 mg/kg
N#Cc1cc(-c2ccc3c(c2)C2(CCCCC2)C(=S)N3)cs1	0.3	–
S=C1Nc2ccc(-c3ccc(Cl)s3)cc2C12CCCCC2	1.4	–
Fc1cccc(-c2ccc3c(c2)C2(CCCCC2)C(S)=N3)c1	1.6	–
Cc1cc(C#N)sc1-c1ccc2c(c1)C1(CCCCC1)C(S)=N2	–	ED50 [3]: 1 mg/kg
S=C1Nc2ccc(-c3cccc(Cl)c3)cc2C12CCCC2	9.8	–
N#Cc1cc(F)cc(-c2ccc3c(c2)C2(CCCCC2)C(S)=N3)c1	0.36	ED50 [3]: 0.1 mg/kg; IC50 (Androgen receptor [4]): > 10 µM; IC50 (Progesterone receptor [2]): 0.025 mg/kg; IC50 (Progesterone receptor [5]): 15.9 nM; EC50 (Glucocorticoid receptor [6]): > 10 µM; IC50 (Glucocorticoid receptor [7]): 35 nM; EC50 (Androgen receptor [8]): > 10 µM
Fc1ccc(-c2ccc3c(c2)C2(CCCCC2)C(S)=N3)cc1F	5.4	–
CCCc1cc(C#N)sc1-c1ccc2c(c1)C1(CCCCC1)C(S)=N2	7.7	–
S=C1Nc2ccc(-c3cccc(Cl)c3)cc2C12CCC2	28.7	–
Fc1cc(Cl)cc(-c2ccc3c(c2)C2(CCCCC2)C(=S)N3)c1	0.5	–
CN1C(=S)C2(CCCCC2)c2cc(-c3cccc(Cl)c3)ccc21	> 3000	EC50 (Progesterone receptor [9]): > 3 µM
SC1=Nc2ccc(-c3cccc(Cl)c3)cc2C12CCCCC2	–	ED50 [3]: > 3 mg/kg; IC50 (Progesterone receptor [2]): 0.37 mg/kg
N#Cc1cc(-c2ccc3c(c2)C2(CCCCC2)C(=S)N3)co1	1.9	–
N#Cc1cc(-c2ccc3c(c2)C2(CCCCC2)C(=S)N3)ccc1F	4.2	–
